Reference: patent US10463644B2, “Uses of sesquiterpene lactone compounds and their derivatives in drugs preparation” (ACCENDATECH, priority 2013, dated 2019)
Read-outs that look alike come from different tables or passages of the source.

Legend:
[1] = system: IL-1β secreted by synoviocyte; experiment: Content of IL-1β in culture supernatant of synoviocyte of RA model rats given test compound; type: in vivo; settings: rat RA model, dose 30 mg/kg.2d; normal control 0.16 ± 0.034, NaCl 0.49 ± 0.136
Summary of the method: (§1)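 Rat RA model; dosing 30 mg/kg.2d; normal and NaCl control groups. Synoviocyte culture supernatant collected; TNF-α and PGE2 measured by one established method, IL-1β by a separate method.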

[2] = system: PGE2 secreted by synoviocyte; experiment: Content of PGE2 in culture supernatant of synoviocyte of RA model rats given test compound; type: in vivo; settings: rat RA model, dose 30 mg/kg.2d; normal control 8.34 ± 1.29, NaCl 32.44 ± 10.32
Summary of the method: as §1

cancer stem cells = experiment: Survival rate of cancer stem cells after test compound is added (flow cytometry, Annexin V-FITC/PI, clinical specimen); type: cell-based, patient; settings: Homo sapiens, 18 h
Summary of the method: (§2)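 Survival was determined in clinical specimens after an 18 h compound treatment, using Annexin V-FITC/PI apoptosis staining and flow cytometry.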

cancer cells = experiment: Survival rate of cancer cells after test compound is added (flow cytometry, Annexin V-FITC/PI, clinical specimen); type: cell-based, patient; settings: Homo sapiens, 18 h, read-out: Survival rate (%) All cells (Stem cells and ordinary cells)
Summary of the method: as §2

normal cells = experiment: Survival rate of normal cells after test compound is added (flow cytometry, Annexin V-FITC/PI); type: cell-based; settings: 18 h
Summary of the method: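 Patient specimens (e.g. AML, CD34+/CD38+ stem-cell marker) separated on Ficoll; mononuclear cells at 1×10^6/mL in serum-free IMDM treated 18 h with compound. Cells stained for stem-cell markers, then Annexin V-FITC/PI, and apoptosis measured by flow cytometry within one hour.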

[3] = Head and neck squamous cell carcinomas
[4] = read-out: Survival rate (%) All cells (Stem cells and ordinary cells)
[5] = read-out: Survival rate (%) Stem cells

For `C=C1C(=O)O[C@@H]2[C@H]3C(C)=CC[C@@]34O[C@@]4(C)CC[C@@H]12` [Compound 50], the “Content of IL-1β in culture supernatant of synoviocyte (x ± s)” value [1] was 0.34 ± 0.061 ng/mL, the “Content of PGE2 in culture supernatant of synoviocyte (x ± s)” value [2] was 19.83 ± 1.78 ng/mL and the viability at 10 µM (cancer stem cells; AML) was 45%. It also gave a viability at 20 µM (cancer stem cells; AML) of 36%, a viability at 10 µM (cancer stem cells; Brain glioma) of 63% and a viability at 20 µM (cancer stem cells; Brain glioma) of 47%. For the same compound, the viability at 10 µM (cancer stem cells; Brain tumor) was 62%, the viability at 20 µM (cancer stem cells; Brain tumor) was 54% and the viability at 10 µM (cancer stem cells; Breast cancer) was 64%. The viability at 20 µM (cancer stem cells; Breast cancer) was 52%, the viability at 10 µM (cancer stem cells; CLL) was 47% and the viability at 20 µM (cancer stem cells; CLL) was 36%. The viability at 10 µM (cancer stem cells; CML) was 57%, the viability at 20 µM (cancer stem cells; CML) was 46% and the viability at 10 µM (cancer stem cells; Children hepatoblastoma) was 42%. The viability at 20 µM (cancer stem cells; Children hepatoblastoma) was 34%, the viability at 10 µM (cancer stem cells; Colon adenocarcinoma) was 43% and the viability at 20 µM (cancer stem cells; Colon adenocarcinoma) was 35%. For the same compound, the viability at 10 µM (cancer stem cells; Colorectal cancer) was 64%, the viability at 20 µM (cancer stem cells; Colorectal cancer) was 55% and the viability at 10 µM (cancer stem cells; Gastric cancer) was 45%. For the same compound, the viability at 20 µM (cancer stem cells; Gastric cancer) was 37%, the viability at 10 µM (cancer stem cells; Gastrointestinal tumor) was 55% and the viability at 20 µM (cancer stem cells; Gastrointestinal tumor) was 44%. The viability at 10 µM (cancer stem cells; Glioma) was 62%, the viability at 20 µM (cancer stem cells; Glioma) was 45% and the viability at 10 µM (cancer stem cells; [3]) was 56%. It also gave a viability at 20 µM (cancer stem cells; [3]) of 47%, a viability at 10 µM (cancer stem cells; Laryngeal cancer) of 64% and a viability at 20 µM (cancer stem cells; Laryngeal cancer) of 53%. The viability at 10 µM (cancer stem cells; Liver cancer) was 53%, the viability at 20 µM (cancer stem cells; Liver cancer) was 46% and the viability at 10 µM (cancer stem cells; Lung adenocarcinoma) was 46%. The viability at 20 µM (cancer stem cells; Lung adenocarcinoma) was 36%, the viability at 10 µM (cancer stem cells; Lung cancer) was 43% and the viability at 20 µM (cancer stem cells; Lung cancer) was 33%. The viability at 10 µM (cancer stem cells; Malignant melanoma) was 64%, the viability at 20 µM (cancer stem cells; Malignant melanoma) was 54% and the viability at 10 µM (cancer stem cells; Nasopharynx cancer) was 44%. It also gave a viability at 20 µM (cancer stem cells; Nasopharynx cancer) of 37%, a viability at 10 µM (cancer stem cells; Ovarian cancer) of 62% and a viability at 20 µM (cancer stem cells; Ovarian cancer) of 55%. The viability at 10 µM (cancer stem cells; Pancreatic cancer) was 53%, the viability at 20 µM (cancer stem cells; Pancreatic cancer) was 43% and the viability at 10 µM (cancer stem cells; Prostate cancer) was 54%. The viability at 20 µM (cancer stem cells; Prostate cancer) was 41%, the viability at 10 µM (cancer stem cells; Retinoblastoma) was 54% and the viability at 20 µM (cancer stem cells; Retinoblastoma) was 44%. The viability at 10 µM (cancer stem cells; Skin cancer) was 57%, the viability at 20 µM (cancer stem cells; Skin cancer) was 43% and the viability at 10 µM (cancer cells; AML) was 57%. For the same compound, the viability at 20 µM (cancer cells; AML) was 47%, the viability at 10 µM (cancer cells; Brain glioma) was 74% and the viability at 20 µM (cancer cells; Brain glioma) was 58%. The viability at 10 µM (cancer cells; Brain tumor) was 72%, the viability at 20 µM (cancer cells; Brain tumor) was 63% and the viability at 10 µM (cancer cells; Breast cancer) was 75%. It also gave a viability at 20 µM (cancer cells; Breast cancer) of 65%, a viability at 10 µM (cancer cells; CLL) of 58% and a viability at 20 µM (cancer cells; CLL) of 47%. It also gave a viability at 10 µM (cancer cells; CML) of 64%, a viability at 20 µM (cancer cells; CML) of 58% and a viability at 10 µM (cancer cells; Children hepatoblastoma) of 55%. It also gave a viability at 20 µM (cancer cells; Children hepatoblastoma) of 47%, a viability at 10 µM (cancer cells; Colon adenocarcinoma) of 55% and a viability at 20 µM (cancer cells; Colon adenocarcinoma) of 49%. The viability at 10 µM (cancer cells; Colorectal cancer) was 76%, the viability at 20 µM (cancer cells; Colorectal cancer) was 66% and the viability at 10 µM (cancer cells; Gastric cancer) was 54%. It also gave a viability at 20 µM (cancer cells; Gastric cancer) of 48%, a viability at 10 µM (cancer cells; Gastrointestinal tumor) of 64% and a viability at 20 µM (cancer cells; Gastrointestinal tumor) of 53%. For the same compound, the viability at 10 µM (cancer cells; Glioma) was 74%, the viability at 20 µM (cancer cells; Glioma) was 56% and the viability at 10 µM (cancer cells; [3]) was 67%. The viability at 20 µM (cancer cells; [3]) was 58%, the viability at 10 µM (cancer cells; Laryngeal cancer) was 75% and the viability at 20 µM (cancer cells; Laryngeal cancer) was 64%. The viability at 10 µM (cancer cells; Liver cancer) was 66%, the viability at 20 µM (cancer cells; Liver cancer) was 54% and the viability at 10 µM (cancer cells; Lung adenocarcinoma) was 57%. The viability at 20 µM (cancer cells; Lung adenocarcinoma) was 47%, the viability at 10 µM (cancer cells; Lung cancer) was 54% and the viability at 20 µM (cancer cells; Lung cancer) was 47%. The viability at 10 µM (cancer cells; Malignant melanoma) was 82%, the viability at 20 µM (cancer cells; Malignant melanoma) was 66% and the viability at 10 µM (cancer cells; Nasopharynx cancer) was 54%. For the same compound, the viability at 20 µM (cancer cells; Nasopharynx cancer) was 48%, the viability at 10 µM (cancer cells; Ovarian cancer) was 77% and the viability at 20 µM (cancer cells; Ovarian cancer) was 67%. For the same compound, the viability at 10 µM (cancer cells; Pancreatic cancer) was 64%, the viability at 20 µM (cancer cells; Pancreatic cancer) was 49% and the viability at 10 µM (cancer cells; Prostate cancer) was 66%. The viability at 20 µM (cancer cells; Prostate cancer) was 54%, the viability at 10 µM (cancer cells; Retinoblastoma) was 65% and the viability at 20 µM (cancer cells; Retinoblastoma) was 53%. It also gave a viability at 10 µM (cancer cells; Skin cancer) of 66%, a viability at 20 µM (cancer cells; Skin cancer) of 58% and a viability at 10 µM (normal cells; [4]) of 92%. It also gave a viability at 10 µM (normal cells; [5]) of 90%, a viability at 20 µM (normal cells; [4]) of 91% and a viability at 20 µM (normal cells; [5]) of 89%.
